According to patent US7056940B2, “Insecticidal 3-(2,6-disubstituted phenyl)-5-[5-arylthien-2-yl]-1,2,4-triazoles” (Dow AgroSciences LLC, priority 2001, dated 2006):

Key:
Assay type in all cases: in vivo
[1] = test system: Tobacco Budworm (Heliothis virescens); test: Insecticidal test for tobacco budworm, treated cotton cotyledon leaf disc; design: key: A: 90–100; B: 80–89; C: 70–79; D: 60–69; E: 50–59; F: less than 50; G: Inactive; settings: cotton cotyledon leaf-dip, 2nd instar larvae, 5 days
Description: (§1) The compounds are useful for reducing populations of insects and mites and are useful in a method of inhibiting an insect or mite population which comprises applying to a locus of the insect or mite an effective insect- or mite-inactivating amount of a compound of formula (1). The “locus” of insects or mites is a term used herein to refer to the environment in which the insects or mites live or where their eggs are present, including the air surrounding them, the food they eat, or objects which they contact. For example, insects or mites which eat or contact edible or ornamental plants can be controlled by applying the active compound to plant parts such as the seed, seedling, or cutting which is planted, the leaves, stems, fruits, grain, or roots, or to the soil in which the roots are growing. It is contemplated that the compounds might also be useful to protect textiles, paper, stored grain, seeds, domesticated animals, buildings or human beings by applying an active compound to or near such objects. The term “inhibiting an insect or mite” refers to a decrease in the numbers of living insects or mites, or a decrease in the number of viable insect or mite eggs. The extent of reduction accomplished by a compound depends, of course, upon the application rate of the compound, the particular compound used, and the target insect or mite species. At least an inactivating amount should be used. The terms “insect-inactivating amount” and “mite-inactivating amount” are used to describe the amount, which is sufficient to cause a measurable reduction in the treated insect or mite population. Generally an amount in the range from about 1 to about 1000 ppm by weight active compound is used. For example, insects and mites which can be inhibited include, but are not limited to: • Lepidoptera—Heliothis spp., Helicoverpa spp., Spodoptera spp., Mythimna unipuncta, Agrotis ipsilon, Earias spp., Euxoa auxiliaris, Trichoplusia ni, Anticarsia gemmatalis, Rachiplusia nu, Plutella xylostella, Chilo spp., Scirpophaga incertulas, Sesamia inferens, Cnaphalocrocis medinalis, Ostrinia nubilalis, Cydia pomonella, Carposina niponensis, Adoxophyes orana, Archips argyrospilus, Pandemis heparana, Epinotia aporema, Eupoecilia ambiguella, Lobesia botrana, Polychrosis viteana, Pectinophora gossypiella, Pieris rapae, Phyllonorycter spp., Leucoptera malifoliella, Phyllocnisitis citrella • Coleoptera—Diabrotica spp., Leptinotarsa decemlineata, Oulema oryzae, Anthonomus grandis, Lissorhoptrus oryzophilus, Agriotes spp., Melanotus communis, Popillia japonica, Cyclocephala spp., Tribolium spp. • Homoptera—Aphis spp., Myzus persicae, Rhopalosiphum spp., Dysaphis plantaginea, Toxoptera spp., Macrosiphum euphorbiae, Aulacorthum solani, Sitobion avenae, Metopolophium dirhodum, Schizaphis graminum, Brachycolus noxius, Nephotettix spp., Nilaparvata lugens, Sogatella furcifera, Laodelphax striatellus, Bemisia tabaci, Trialeurodes vaporariorum, Aleurodes proletella, Aleurothrixus floccosus, Quadraspidiotus perniciosus, Unaspis yanonensis, Ceroplastes rubens, Aonidiella aurantii • Hemiptera—Lygus spp., Eurygaster maura, Nezara viridula, Piezodorus guildingi, Leptocorisa varicornis • Thysanoptera—Frankliniella occidentalis, Thrips spp., Scirtothrips dorsalis • Isoptera—Reticulitermes flavipes, Coptotermes formosanus • Orthoptera—Blattella germanica, Blatta orientalis, Gryllotalpa spp. • Diptera—Liriomyza spp., Musca domestica, Aedes spp., Culex spp., Anopheles spp. • Hymenoptera—Iridomyrmex humilis, Solenopsis spp., Monomorium pharaonis, Atta spp., Pogonomyrmex spp., Camponotus spp. • Siphonaptera—Ctenophalides spp., Pulex irritans • Acarina—Tetranychus spp., Panonychus spp., Eotetranychus carpini, Phyllocoptruta oleivora, Aculus pelekassi, Brevipalpus phoenicis, Boophilus spp., Dermacentor variabilis, Rhipicephalus sanguineus, Amblyomma americanum, Ixodes spp., Notoedres cati, Sarcoptes scabiei, Dermatophagoides spp. […]

[2] = test system: Beet Armyworm (Spodoptera exigua); test: Insecticidal test for beet armyworm, treated lepidopteran diet; design: key: A: 90–100; B: 80–89; C: 70–79; D: 60–69; E: 50–59; F: less than 50; G: Inactive; settings: on diet surface, second-instar larvae, 5 days
Description: as §1

[3] = test system: Cabbage Looper (Trichoplusia ni); test: Insecticidal test for cabbage looper, treated cabbage leaf disc; design: key: A: 90–100; B: 80–89; C: 70–79; D: 60–69; E: 50–59; F: less than 50; G: Inactive; settings: cabbage leaf-dip, 2nd instar larvae, 5 days
Description: as §1

[4] = test system: Cotton Aphid (Aphis gossypii); test: Insecticidal test for cotton aphid, spray on infested squash cotyledons; settings: 50 ppm spray, 3 days
Protocol: Insecticidal Test for Cotton Aphid (Aphis gossypii)
To prepare spray solutions, 1 mg of each test compound was dissolved into 1 mL of a 90:10 acetone:ethanol solvent. This 1 mL of chemical solution was added to 19 mL of water containing 0.05% Tween 20 surfactant to produce a 50 ppm spray solution.
Squash cotyledons were infested with cotton aphid (all life stages) 16–20 hours prior to application of spray solution. The solution was sprayed on both sides of each infested squash cotyledon (0.5 mL×2 each side) with a sweeping action until runoff. The plants were allowed to air dry and held for 3 days in a controlled room at 26° C. and 40% RH after which time the test was graded. Grading was by actual count using a dissecting microscope and comparison of test counts to the untreated check. Results are given in Tables 1–4 as percent control based on population reduction versus the untreated.

[5] = test system: Two-spotted Spider Mite (Tetranychus urticae); test: Insecticidal test for two-spotted spider mite, ovicide method; design: key: A: 90–100; B: 80–89; C: 70–79; D: 60–69; E: 50–59; F: less than 50; G: Inactive; settings: cotton leaf discs, 6 days
Protocol: Insecticidal Test for Two-spotted Spider Mite (Tetranychus urticae)
Ten adult female two-spotted spider mites were placed on eight 2.2 cm leaf discs of cotton leaf, allowed to oviposit over 24 hours, and thereafter removed. […] Discs were placed on an agar substrate and held at 24° C. and 90% RH for 6 days.

[6] = test system: Sweetpotato Whitefly (Bemisia tabacia); test: Insecticidal test for sweetpotato whitefly, spray on cotton plants; design: key: A: 90–100; B: 80–89; C: 70–79; D: 60–69; E: 50–59; F: less than 50; G: Inactive; settings: 200 ppm spray, 13 days, large nymphs
Protocol: Insecticidal Test for Sweetpotato Whitefly (Bemisia tabacia)
Four mg of each test compound was dissolved by adding 4 mL of a 90:10 acetone:ethanol solvent mixture to the vial containing the sample compound. This solution was added to 16 mL of water containing 0.05% Tween 20 surfactant to produce 20 mL of an 200 ppm spray solution.
Five-week-old cotton plants reared in a greenhouse were stripped of all foliage except for the two uppermost true leaves that were greater than 5 cm in diameter. These plants were then placed into a laboratory colony of whiteflies for two days for oviposition by the colony females. All whiteflies were then removed from the test plants with pressurized air. The spray solution was then applied to the test plants with a hand-held syringe fitted with hollow cone nozzle. One mL spray solution was applied to each leaf top and bottom for a total of 4 mL per plant. Four replications of each test compound utilized a total of 16 mL spray solution. Plants were air dried and then placed in a holding chamber (28° C. and 60% RH) for 13 days. Compound efficacy was evaluated by counting, under an illuminated magnifying glass, the number of large nymphs (3rd–4th instar) per leaf.
Percent control based on reduction of large nymphs of a test compound compared to solution-only (no test compound) sprayed plants is reported in Tables 1–4.

SMILES | TBW: activity at 400 ppm against tobacco budworm (% control rating) [1] | BAW: activity at 400 ppm against beet armyworm (% control rating) [2] | CL: activity at 400 ppm against cabbage looper (% control rating) [3] | CA: activity at 50 ppm against cotton aphid (% control rating) [4] | SM: activity against two-spotted spider mite (% control rating) [5] | WF: activity at 200 ppm against whitefly (% control rating) [6]
CSc1ccc(-c2scc(-c3nc(-c4c(F)cccc4Cl)nn3C)c2C)cc1 | G | D (60–69) | G | B (80–89) | E (50–59) | G
Cc1c(-c2nc(-c3c(F)cccc3Cl)nn2C)csc1-c1cccc(OC(F)(F)F)c1 | G | G | A (90–100) | A (90–100) | F (less than 50) | B (80–89)
Cc1c(-c2nc(-c3c(F)cccc3Cl)nn2C)csc1-c1ccc(Oc2ccccc2)cc1 | F (less than 50) | A (90–100) | A (90–100) | A (90–100) | A (90–100) | A (90–100)
CCCOc1ccc(-c2scc(-c3nc(-c4c(F)cccc4Cl)nn3C)c2C)cc1 | G | A (90–100) | A (90–100) | A (90–100) | G | A (90–100)
Cc1c(-c2nc(-c3c(F)cccc3Cl)nn2C)csc1-c1ccc(OCC(F)(F)F)cc1 | A (90–100) | A (90–100) | A (90–100) | B (80–89) | A (90–100) | A (90–100)
Cc1c(-c2nc(-c3c(F)cccc3Cl)nn2C)csc1-c1cc(C(F)(F)F)ccc1F | G | G | A (90–100) | B (80–89) | F (less than 50) | F (less than 50)
Cc1sc(-c2cc(C(F)(F)F)ccc2F)cc1-c1nc(-c2c(F)cccc2Cl)nn1C | F (less than 50) | G | G | D (60–69) | G | G
Cc1c(-c2nc(-c3c(F)cccc3Cl)nn2C)csc1-c1ccc(OC(F)(F)C(F)Br)cc1 (stereo not drawn) | A (90–100) | A (90–100) | A (90–100) | A (90–100) | A (90–100) | A (90–100)
Cc1c(-c2nc(-c3c(F)cccc3F)nn2C)csc1-c1ccc(C(F)(F)F)cc1Cl | G | G | A (90–100) | E (50–59) | G | G
Cc1c(-c2nc(-c3c(F)cccc3Cl)nn2C)csc1-c1ccc(OC(F)(F)F)cc1F | A (90–100) | A (90–100) | A (90–100) | B (80–89) | F (less than 50) | A (90–100)
Cc1c(-c2nc(-c3c(F)cccc3Cl)nn2C)csc1-c1ccc(OC2CCCCO2)cc1 (stereo not drawn) | F (less than 50) | A (90–100) | F (less than 50) | B (80–89) | F (less than 50) | F (less than 50)
Cc1c(-c2nc(-c3c(F)cccc3Cl)nn2C)csc1-c1ccc(OC(F)(F)C(F)F)cc1 | A (90–100) | A (90–100) | A (90–100) | C (70–79) | E (50–59) | A (90–100)
Cc1sc(-c2ccc(OC(F)(F)C(F)C(F)(F)F)cc2)c(C)c1-c1nc(-c2c(F)cccc2Cl)nn1C (stereo not drawn) | A (90–100) | A (90–100) | A (90–100) | E (50–59) | G | G
